Reference: ChEMBL document CHEMBL1125394, “Analgesic dipeptide derivatives. 7. 3,7-Diamino-2-hydroxyheptanoic acid (DAHHA) containing dipeptide analogues of the analgesic compound H-Lys-Trp(Nps)-OMe” (J Med Chem, 1992)
Residues, ends and D or L forms follow the SMILES beside them.

Assays:
Mus musculus [1] = species on record: Mus musculus; experiment: Analgesic response measured as percentage change in reaction time (dose 5 ug given intracervically) after 30 min in mice; format: functional
Mus musculus [2] = species on record: Mus musculus; experiment: Analgesic response measured as percentage change in reaction time (dose 5 ug given intracervically) after 60 min in mice; format: functional
Aminopeptidase B [3] = molecular target: T1, Aminopeptidase B (Rattus norvegicus, UniProt O09175); experiment: Inhibitory potency against purified membrane bound rat brain Aminopeptidase B using L-lysine-beta napthylamide as substrate; format: functional
T1 sequence (O09175 whole entry): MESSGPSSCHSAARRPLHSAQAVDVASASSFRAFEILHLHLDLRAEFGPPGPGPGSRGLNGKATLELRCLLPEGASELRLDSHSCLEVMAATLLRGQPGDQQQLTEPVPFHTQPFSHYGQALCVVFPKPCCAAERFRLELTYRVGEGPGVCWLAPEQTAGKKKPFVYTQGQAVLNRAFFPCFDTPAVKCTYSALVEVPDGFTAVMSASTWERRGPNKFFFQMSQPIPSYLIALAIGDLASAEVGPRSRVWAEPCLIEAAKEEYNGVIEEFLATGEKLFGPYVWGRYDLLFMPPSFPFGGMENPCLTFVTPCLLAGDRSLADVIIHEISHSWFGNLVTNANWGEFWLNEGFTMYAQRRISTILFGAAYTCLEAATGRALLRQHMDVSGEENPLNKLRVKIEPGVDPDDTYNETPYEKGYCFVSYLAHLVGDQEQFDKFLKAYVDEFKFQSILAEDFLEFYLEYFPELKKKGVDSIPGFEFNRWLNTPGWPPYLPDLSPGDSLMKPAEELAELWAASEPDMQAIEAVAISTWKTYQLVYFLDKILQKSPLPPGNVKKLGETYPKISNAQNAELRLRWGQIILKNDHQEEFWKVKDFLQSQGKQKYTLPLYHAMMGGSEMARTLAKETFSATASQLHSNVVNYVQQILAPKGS

Mus musculus [4] = species on record: Mus musculus; experiment: Analgesic response measured as percentage change in reaction time (dose 5 ug given intracervically) after 5 min in mice; format: functional
Aminopeptidase N [5] = molecular target: T2, Aminopeptidase N (Rattus norvegicus, UniProt P15684); experiment: Inhibitory potency against purified membrane bound rat brain Aminopeptidase M using [3H]Leu-enkephalin as substrate; format: functional
T2 sequence (P15684 whole entry): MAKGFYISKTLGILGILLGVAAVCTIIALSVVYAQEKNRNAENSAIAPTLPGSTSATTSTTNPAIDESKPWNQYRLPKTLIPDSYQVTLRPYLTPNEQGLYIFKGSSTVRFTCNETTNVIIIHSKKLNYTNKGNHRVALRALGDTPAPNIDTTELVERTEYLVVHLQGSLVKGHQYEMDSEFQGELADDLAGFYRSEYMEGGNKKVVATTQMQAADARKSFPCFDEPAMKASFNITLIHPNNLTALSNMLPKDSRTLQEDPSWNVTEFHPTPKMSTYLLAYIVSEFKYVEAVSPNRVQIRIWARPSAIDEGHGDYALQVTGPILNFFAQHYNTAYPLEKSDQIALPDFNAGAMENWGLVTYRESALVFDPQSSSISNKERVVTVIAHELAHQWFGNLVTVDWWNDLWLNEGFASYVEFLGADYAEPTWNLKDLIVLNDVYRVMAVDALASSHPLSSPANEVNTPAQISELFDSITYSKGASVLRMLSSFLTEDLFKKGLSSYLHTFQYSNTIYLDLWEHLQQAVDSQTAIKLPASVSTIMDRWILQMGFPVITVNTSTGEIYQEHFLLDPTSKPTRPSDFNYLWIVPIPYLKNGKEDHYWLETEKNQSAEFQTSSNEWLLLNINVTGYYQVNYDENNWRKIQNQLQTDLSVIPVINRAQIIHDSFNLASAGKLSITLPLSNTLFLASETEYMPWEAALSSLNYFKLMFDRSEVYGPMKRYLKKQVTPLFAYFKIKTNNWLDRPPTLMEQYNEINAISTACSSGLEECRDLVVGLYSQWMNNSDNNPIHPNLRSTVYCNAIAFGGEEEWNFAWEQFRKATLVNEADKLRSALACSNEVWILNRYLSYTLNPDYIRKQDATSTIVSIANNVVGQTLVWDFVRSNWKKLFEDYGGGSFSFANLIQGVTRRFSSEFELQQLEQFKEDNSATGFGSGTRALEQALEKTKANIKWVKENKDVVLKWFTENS

Mus musculus [6] = species on record: Mus musculus; experiment: Analgesic response measured as percentage change in reaction time (dose 1 ug given intracervically) after 60 min in mice; format: functional
Mus musculus [7] = species on record: Mus musculus; experiment: Analgesic response measured as percentage change in reaction time (dose 1 ug given intracervically) after 5 min in mice; format: functional
Aminopeptidase N [8] = molecular target: T2, Aminopeptidase N; experiment: Inhibitory potency against purified membrane bound rat brain Aminopeptidase M (AP-M) using [3H]Leu-enkephalin as substrate
Mus musculus [9] = species on record: Mus musculus; experiment: Analgesic response measured as percentage change in reaction time (dose 1 ug given intracervically) after 30 min in mice; format: functional
Aminopeptidase B [10] = molecular target: T1, Aminopeptidase B; experiment: Inhibitory potency against purified membrane bound rat brain Aminopeptidase B (AP-B) using L-lysine-beta napthylamide as substrate
Aminopeptidase B [11] = molecular target: T1, Aminopeptidase B; experiment: Compound was evaluated for its inhibitory potency against purified membrane bound rat brain Aminopeptidase B (AP-B) using L-lysine-beta napthylamide as substrate
Mus musculus [12] = species on record: Mus musculus; experiment: Analgesic response measured as percentage change in reaction time (dose 10 ug given intracervically) after 30 min in mice; Signs of strong neurotoxicity; format: functional, organism-based
Mus musculus [13] = species on record: Mus musculus; experiment: Analgesic response measured as percentage change in reaction time (dose 10 ug given intracervically) after 60 min in mice; Signs of strong neurotoxicity; format: functional, organism-based
Mus musculus [14] = species on record: Mus musculus; experiment: Analgesic response measured as percentage change in reaction time ((dose 1 ug given intracervically) after 60 min in mice; format: functional
Mus musculus [15] = species on record: Mus musculus; experiment: Analgesic response measured as percentage change in reaction time (dose 10 ug given intracervically) after 5 min in mice; format: functional
Aminopeptidase N [16] = molecular target: T2, Aminopeptidase N; experiment: Compound was evaluated for its inhibitory potency against purified membrane bound rat brain Aminopeptidase M (AP-M) using [3H]Leu-enkephalin as substrate
Aminopeptidase N [17] = molecular target: T2, Aminopeptidase N; experiment: (§1) Compound was evaluated for its inhibitory potency against purified membrane bound rat brain Aminopeptidase M using [3H]Leu-enkephalin as substrate; format: functional
Mus musculus [18] = species on record: Mus musculus; experiment: Analgesic response measured as percentage change in reaction time (dose given intracervically) after 60 min in mice; format: functional
[19] = (§2) Compound was evaluated for its inhibitory potency against purified membrane bound rat brain APs; format: functional
Aminopeptidase B [20] = molecular target: T1, Aminopeptidase B; experiment: (§3) Compound was evaluated for its inhibitory potency against purified membrane bound rat brain Aminopeptidase B using L-lysine-beta napthylamide as substrate; format: functional
Aminopeptidase N [21] = molecular target: T2, Aminopeptidase N; experiment: as §1
Aminopeptidase B [22] = molecular target: T1, Aminopeptidase B; experiment: as §3
Mus musculus [23] = species on record: Mus musculus; experiment: Analgesic response measured as percentage change in reaction time (dose 25 ug given intracervically) after 30 min in mice; format: functional
[24] = as §2; format: tissue-based
Mus musculus [25] = species on record: Mus musculus; experiment: Analgesic response measured as percentage change in reaction time (dose 25 ug given intracervically) after 60 min in mice; format: functional
Mus musculus [26] = species on record: Mus musculus; experiment: Analgesic response measured as percentage change in reaction time (dose 100 ug given intracervically) after 60 min in mice; format: functional
Mus musculus [27] = species on record: Mus musculus; experiment: Analgesic response measured as percentage change in reaction time (dose 25 ug given intracervically) after 5 min in mice; format: functional
Mus musculus [28] = species on record: Mus musculus; experiment: Analgesic response measured as percentage change in reaction time (dose 100 ug given intracervically) after 5 min in mice; format: functional
Mus musculus [29] = species on record: Mus musculus; experiment: Analgesic response measured as percentage change in reaction time (dose 100 ug given intracervically) after 30 min in mice; format: functional
Mus musculus [30] = species on record: Mus musculus; experiment: Analgesic response measured as percentage change in reaction time (dose 0.5 ug given intracervically) after 5 min in mice; format: functional
Mus musculus [31] = species on record: Mus musculus; experiment: Analgesic response measured as percentage change in reaction time (dose 0.5 ug given intracervically) after 60 min in mice; format: functional
Mus musculus [32] = species on record: Mus musculus; experiment: Analgesic response measured as percentage change in reaction time (dose 0.5 ug given intracervically) after 30 min in mice; format: functional

Compound | Change (Mus musculus [1]) | Change (Mus musculus [2]) | Change (Mus musculus [4]) | Change (Mus musculus [7]) | Change (Mus musculus [9]) | IC50 (Aminopeptidase B [11]) | IC50 (Aminopeptidase N [16]) | IC50 (Aminopeptidase N [17]) | IC50 (Aminopeptidase B [20]) | also measured
COC(=O)[C@@H](Cc1c[nH]c2ccccc12)NC(=O)[C@@H](O)[C@H](N)CCCCN.COC(=O)[C@@H](Cc1c[nH]c2ccccc12)NC(=O)[C@H](O)[C@H](N)CCCCN | 1% | 5% | 10% | – | – | – | – | – | – | IC50 (Aminopeptidase B [3]): > 1000 µM; IC50 (Aminopeptidase N [5]): 826 µM
COC(=O)[C@H](Cc1c(Sc2ccccc2[N+](=O)[O-])[nH]c2ccccc12)NC(=O)C(O)[C@@H](N)CCCCN (some centres undefined) | 64% | 43% | 75% | 25% | 15% | – | – | – | – | Change (Mus musculus [6]): -8%; IC50 (Aminopeptidase N [8]): 852 µM; IC50 (Aminopeptidase B [10]): 583 µM
COC(=O)[C@H](Cc1c(Sc2ccccc2[N+](=O)[O-])[nH]c2ccccc12)NC(=O)[C@@H](O)[C@H](N)CCCCN | 80% | 74% | 146% | 124% | 63% | 101 µM | 7 µM | – | – | Change (Mus musculus [12]): Signs of strong neurotoxicity; Change (Mus musculus [13]): Signs of strong neurotoxicity; Change (Mus musculus [14]): 47%; Change (Mus musculus [15]): 243%
COC(=O)[C@H](Cc1c[nH]c2ccccc12)NC(=O)[C@@H](O)[C@H](N)CCCCN.Cl.Cl | 17% | – | <60% | – | – | – | – | 10.2 µM | > 1000 µM | Change (Mus musculus [18]): 14%; IC50 [19]: 0.21 µM
COC(=O)[C@@H](Cc1c[nH]c2ccccc12)NC(=O)[C@H](O)[C@@H](N)CCCCN | -1% | 2% | 22% | – | – | – | – | > 1000 µM | > 1000 µM | –
COC(=O)[C@H](Cc1c[nH]c2ccccc12)NC(=O)[C@H](O)[C@H](N)CCCCN | – | – | – | – | – | – | – | 502 µM | > 1000 µM | IC50 [19]: 45.5 µM
NCCCC[C@H](N)C(=O)N[C@@H](Cc1c[nH]c2ccccc12)C(=O)O (H-Lys-Trp-OH) | – | – | – | – | – | > 1000 µM | > 1000 µM | – | – | –
COC(=O)[C@@H](Cc1c[nH]c2ccccc12)NC(=O)[C@@H](O)[C@@H](N)CCCCN | 10% | 15% | -1% | – | – | – | – | > 1000 µM | > 1000 µM | –
COC(=O)[C@H](CC(C)C)NC(=O)[C@@H](O)[C@@H](N)CCCCN.COC(=O)[C@H](CC(C)C)NC(=O)[C@H](O)[C@@H](N)CCCCN | 10% | 15% | -1% | – | – | 500 µM | > 1000 µM | – | – | –
COC(=O)[C@H](CC(C)C)NC(=O)[C@@H](O)[C@H](N)CCCCN | 21% | 23% | <62% | – | – | – | – | – | – | IC50 (Aminopeptidase N [21]): 201 µM; IC50 (Aminopeptidase B [22]): 481 µM
CC(C)C[C@H](NC(=O)[C@@H](O)[C@H](N)Cc1ccccc1)C(=O)O [UBENIMEX] | – | – | – | – | – | – | – | – | – | Change (Mus musculus [23]): 3%; IC50 [24]: 0.3 µM; IC50 (Aminopeptidase N [21]): 19.4 µM; Change (Mus musculus [25]): -3%; Change (Mus musculus [26]): 59%; Change (Mus musculus [27]): 26%; Change (Mus musculus [28]): 11%; IC50 (Aminopeptidase B [22]): 6 µM; Change (Mus musculus [29]): 41%
COC(=O)[C@@H](Cc1c(Sc2ccccc2[N+](=O)[O-])[nH]c2ccccc12)NC(=O)[C@H](O)[C@@H](N)CCCCN | 75% | 55% | 59% | 19% | 21% | 982 µM | 225 µM | – | – | Change (Mus musculus [6]): -1%
COC(=O)[C@H](Cc1c[nH]c2ccccc12)NC(=O)[C@@H](O)[C@@H](N)CCCCN.COC(=O)[C@H](Cc1c[nH]c2ccccc12)NC(=O)[C@H](O)[C@@H](N)CCCCN | 19% | -4% | 26% | – | – | – | – | > 1000 µM | 500 µM | –
COC(=O)[C@@H](Cc1c(Sc2ccccc2[N+](=O)[O-])[nH]c2ccccc12)NC(=O)C(O)[C@H](N)CCCCN (some centres undefined) | 56% | 37% | 80% | 19% | 13% | 486 µM | 91.2 µM | – | – | Change (Mus musculus [6]): -2%
COC(=O)[C@H](Cc1c(Sc2ccccc2[N+](=O)[O-])[nH]c2ccccc12)NC(=O)[C@@H](N)CCCCN | – | – | – | <130% | <60% | – | – | 261 µM | 400 µM | Change (Mus musculus [6]): 35%; IC50 [19]: 18 µM; Change (Mus musculus [30]): <80%; Change (Mus musculus [31]): 20%; Change (Mus musculus [32]): <40%
